Reference: patent US20230391756A1, “NEW COMPOUND” (JANSSEN PHARMACEUTICA NV, priority 2020, published 2023)

How the values were obtained:
TNF = experiment: PBMC assay: TNF cytokine level after LPS stimulation; format: cell-based; conditions: human PBMCs, 100 ng/ml LPS for 6 hrs, MSD, read-out: TNFα EC50
Procedure: (§1) Peripheral venous blood was collected from healthy individuals and human peripheral blood mononuclear cells (PBMCs) were isolated from blood by Ficoll-Histopaque (Sigma-Aldrich, A0561) density gradient centrifugation. After isolation, PBMCs were stored in liquid nitrogen for later use. Upon thawing, PBMC cell viability was determined in growth medium (RPMI media supplemented with 10% fetal bovine serum, 1% Pen-Strep and 1% L-glutamine). […] PBMCs were added at a density of 7.5×10^4 cells per well and incubated for 30 min in a 5% CO2 incubator at 37° C. LPS stimulation was performed by addition of 100 ng/ml LPS (final concentration, Invivogen, tlrl-smlps) for 6 hrs followed by collection of cellular supernatant and the analysis of IL-1β (μM) and TNF cytokines levels (μM) via MSD technology according to manufacturers' guidelines (MSD, K151A0H).

[1] = test system: NLRP3 inflammasome pathway (IL-1β); experiment: PBMC assay: IL-1β release after LPS stimulation; format: cell-based; conditions: human PBMCs, 100 ng/ml LPS for 6 hrs, MSD
Procedure: The activity of a compound according to the present invention can be assessed by in vitro methods.
as §1

| SMILES | EC50 (TNF) [µM] | IC50 [1] [µM] | melting point [°C] |
| --- | --- | --- | --- |
| CCn1nc(CC(=O)Nc2ccc3ncn(C)c3n2)c(=O)c2ccc(C(F)(F)F)cc21 [F-57] | > 20 | 0.514 | 237.8 |
| CC(C)c1ccc2c(=O)c(CC(=O)Nc3ccc4nccn4n3)nn(C3CC3)c2c1 [F-58] | 15.8 | 0.37 | 190.1 |
| CCn1nc(CC(=O)Nc2ccc3nccn3n2)c(=O)c2ccc(C(F)(F)F)cc21 [F-60] | ~12.8 | 0.35 | 193 |
| O=C(Cc1nn(C2CC2)c2cc(C(F)(F)F)ccc2c1=O)Nc1ccc2nccn2n1 [F-61] | > 20 | 0.29 | 216.4 |
| CCn1nc(CC(=O)Nc2ccc3nccn3n2)c(=O)c2ccc(C3CC3)cc21 [F-62] | > 20 | 0.275 | 193.4 |
| CC(F)(F)c1ccc2c(=O)c(CC(=O)Nc3ccc4nccn4n3)nn(C3CC3)c2c1 [F-64] | 7.89 | 0.26 | 188.9 |
| O=C(Cc1nn(C2CC2)c2cc(Br)ccc2c1=O)Nc1ccc2nccn2n1 [F-66] | > 20 | 0.23 | 244.6 |
| CC(F)(F)c1ccc2c(=O)c(CC(=O)Nc3ccc4nncn4c3)nn(C3CC3)c2c1 [F-67] | > 20 | 0.22 | 145.4 |
| CCn1nc(CC(=O)Nc2ccc3nncn3c2)c(=O)c2ccc(C(C)(F)F)cc21 [F-68] | > 20 | 0.2 | 279.8 |
| CCn1nc(CC(=O)Nc2ccc3nncn3n2)c(=O)c2ccc(C(C)(F)F)cc21 [F-70] | 7.84 | 0.147 | 252.9 |
| O=C(Cc1nn(C2CC2)c2cc(Br)ccc2c1=O)Nc1ccc2nncn2c1 [F-71] | > 20 | 0.105 | 310 |
| CCn1nc(CC(=O)Nc2ccc3nncn3c2)c(=O)c2ccc(C(C)(C)F)cc21 [F-74] | 12.5 | 0.4 | 238.2 |
| CC(C)n1nc(CC(=O)Nc2ccc3nncn3c2)c(=O)c2ccc(C(C)(C)F)cc21 [F-75] | 14.6 | 0.52 | 256.8 |
| CC(C)n1nc(CC(=O)Nc2ccc(I)nn2)c(=O)c2ccc(C(F)(F)F)cc21 [F-85] | > 20 | 15.3 | 177.9 |
| CC(C)n1nc(CC(=O)Nc2ccc(C3CC3)nn2)c(=O)c2ccc(C(F)(F)F)cc21 [F-86] | > 20 | 12.9 | 185.8 |
| CC(C)n1nc(CC(=O)Nc2nc3ccccc3n2C)c(=O)c2ccc(C(F)(F)F)cc21 [F-91] | > 20 | > 20 | 214.7 |
| CC(C)n1nc(CC(=O)Nc2nc3ccc(C#N)cc3n2C)c(=O)c2ccc(C(F)(F)F)cc21 [F-92] | > 20 | > 20 | 242.9 |
| CC(C)n1nc(CC(=O)Nc2nc3ccc(Br)cc3n2C)c(=O)c2ccc(C(F)(F)F)cc21 [F-93] | > 20 | > 20 | 219.5 |
| Cc1ccc2c(c1)nc(NC(=O)Cc1nn(C(C)C)c3cc(C(F)(F)F)ccc3c1=O)n2C [F-94] | > 20 | > 20 | 217.3 |
| Cc1ccc2nc(NC(=O)Cc3nn(C(C)C)c4cc(C(F)(F)F)ccc4c3=O)n(C)c2c1 [F-95] | > 20 | > 20 | 217.4 |
| CC(C)n1nc(CC(=O)Nc2nc3ccc(F)cc3n2C)c(=O)c2ccc(Br)cc21 [F-96] | > 20 | > 20 | 229.8 |

| SMILES | EC50 (TNF) [µM] | IC50 [1] [µM] | melting point [°C] |
| --- | --- | --- | --- |
| CC(C)n1nc(CC(=O)Nc2nc3cc(F)ccc3n2C)c(=O)c2ccc(Br)cc21 [F-97] | > 20 | > 20 | 245.3 |
| CC(C)n1nc(CC(=O)Nc2nc3cc(F)ccc3n2C)c(=O)c2ccc(C(F)(F)F)cc21 [F-98] | > 20 | > 20 | 222.5 |
| CC(C)n1nc(CC(=O)Nc2nc3ccc(F)cc3n2C)c(=O)c2ccc(C(F)(F)F)cc21 [F-99] | > 20 | > 20 | 221.8 |
| CC(C)n1nc(CC(=O)Nc2nc3ccccc3n2C)c(=O)c2ccc(Br)cc21 [F-100] | > 20 | 18.2 | 205.6 |
| CC(C)n1nc(CC(=O)Nc2nc3cc(C#N)ccc3n2C)c(=O)c2ccc(C(F)(F)F)cc21 [F-101] | ~16.5 | 15 | 243.8 |
| CC(C)n1nc(CC(=O)Nc2nc3cc(Cl)ccc3o2)c(=O)c2ccc(Br)cc21 [F-104] | > 20 | 2.48 | 199 |
| CCn1nc(CC(=O)Nc2cn3cnnc3cn2)c(=O)c2ccc(C(F)(F)F)cc21 [F-106] | > 20 | 1.45 | 280.2 |
| O=C(Cc1nn(C2CC2)c2cc(C(F)(F)F)ccc2c1=O)Nc1cn2cnnc2cn1 [F-107] | > 20 | 1.14 | 270.9 |
| CC(F)(F)c1ccc2c(=O)c(CC(=O)Nc3cn4cnnc4cn3)nn(C3CC3)c2c1 [F-108] | > 20 | 0.985 | 257.9 |
| CC(C)n1nc(CC(=O)Nc2nc3ccccc3o2)c(=O)c2ccc(C(F)(F)F)cc21 [F-110] | > 20 | 0.9 | 187.4 |
| CC(C)n1nc(CC(=O)Nc2nc3ccccc3o2)c(=O)c2ccc(Br)cc21 [F-111] | > 20 | 0.62 | 203.3 |
| O=C(Cc1nn(C2CC2)c2cc(Br)ccc2c1=O)Nc1cn2cnnc2cn1 [F-113] | > 20 | 0.513 | 277.2 |
| CC(C)n1nc(CC(=O)Nc2nc3ncccn3n2)c(=O)c2ccc(C(F)(F)F)cc21 [F-114] | > 20 | 0.33 | 259.7 |
| CC(C)n1nc(CC(=O)Nc2ccc3nnc(Cl)n3n2)c(=O)c2ccc(C(F)(F)F)cc21 [F-132] | > 20 | 0.892 | 248.9 |
| CCn1nc(CC(=O)Nc2ccc3nncn3n2)c(=O)c2ccc(C3CCC3)cc21 [F-136] | 14.1 | 1.03 | 136.4 |
| O=C(Cc1nn(C2CC2)c2cc(C(F)(F)F)ccc2c1=O)Nc1ccc2nncn2n1 [F-139] | > 20 | 0.21 | 215.7 |
| CCn1nc(CC(=O)Nc2ccc3nncn3n2)c(=O)c2ccc(C3CC3)cc21 [F-141] | 9.77 | 0.12 | 223 |
| CC(C)n1nc(CC(=O)Nc2ccc3nncn3n2)c(=O)c2ccc(C(C)(F)F)cc21 [F-145] | 4.32 | 0.077 | 214.1 |
| CCC(C)n1nc(CC(=O)Nc2ccc3nncn3n2)c(=O)c2ccc(C(F)(F)F)cc21 (stereo not drawn) [F-146] | 4.67 | 0.142 | 179.8 |
| CC(C)n1nc(CC(=O)Nc2ccc3nncn3n2)c(=O)c2ccc(C(C)(C)F)cc21 [F-147] | 2.34 | 0.051 | 188.2 |
| CC(C)n1nc(CC(=O)Nc2ccc3nncn3n2)c(=O)c2ccc(C3CCC3)cc21 [F-148] | 4.58 | 0.513 | 168.8 |
